The results in this text go back to publication PMC10728955 (RSC Advances, 2023).

The subject of experiment [1] is Bcl-2. Type of experiment: cell-based. Particulars: MCF-7, 0.04 μM.
Experiment [2] relates to normal human lung cells (WI-38). Particulars: WI-38 versus HepG2.
The test system of experiment [3] is MCF-7 cells. In words: Cell cycle analysis by flow cytometry. Type of experiment: cell-based. The note with it: 0.041 μM, 72 h.
Experiment [4] deals with normal human lung cells (WI-38). In words: cells. Particulars: WI-38, read-out: WI-38 IC50.
Experiment [5] has as its system MCF-7 cells. In words: Cell migration and scratch wound healing assay. Type of experiment: cell-based.
Experiment [6] relates to MCF-7 cells. As to the kind of experiment: cells. The note with it: Homo sapiens, MCF7, read-out: In vitro cytotoxicity IC50, MCF-7.
Experiment [7] concerns the target Human VEGFR-2 (Homo sapiens, UniProt P35968). In words: In vitro VEGFR-2 inhibition, VEGFR-2 ELISA kit. Type of experiment: biochemical. For orientation: ELISA stands for enzyme-linked immunosorbent assay.
Experiment [8] concerns MCF-7 cells. As to the kind of experiment: Apoptosis assay, annexin V-FITC/PI. Type of experiment: cell-based. Particulars: 0.04 μM, 72 h.
Experiment [9] deals with HepG2 cells. As to the kind of experiment: cells. Particulars: Homo sapiens, HepG2, read-out: In vitro cytotoxicity IC50, HepG2.

SMILES strings stand for the structures.

Sequence of Human VEGFR-2 (P35968 20-1356): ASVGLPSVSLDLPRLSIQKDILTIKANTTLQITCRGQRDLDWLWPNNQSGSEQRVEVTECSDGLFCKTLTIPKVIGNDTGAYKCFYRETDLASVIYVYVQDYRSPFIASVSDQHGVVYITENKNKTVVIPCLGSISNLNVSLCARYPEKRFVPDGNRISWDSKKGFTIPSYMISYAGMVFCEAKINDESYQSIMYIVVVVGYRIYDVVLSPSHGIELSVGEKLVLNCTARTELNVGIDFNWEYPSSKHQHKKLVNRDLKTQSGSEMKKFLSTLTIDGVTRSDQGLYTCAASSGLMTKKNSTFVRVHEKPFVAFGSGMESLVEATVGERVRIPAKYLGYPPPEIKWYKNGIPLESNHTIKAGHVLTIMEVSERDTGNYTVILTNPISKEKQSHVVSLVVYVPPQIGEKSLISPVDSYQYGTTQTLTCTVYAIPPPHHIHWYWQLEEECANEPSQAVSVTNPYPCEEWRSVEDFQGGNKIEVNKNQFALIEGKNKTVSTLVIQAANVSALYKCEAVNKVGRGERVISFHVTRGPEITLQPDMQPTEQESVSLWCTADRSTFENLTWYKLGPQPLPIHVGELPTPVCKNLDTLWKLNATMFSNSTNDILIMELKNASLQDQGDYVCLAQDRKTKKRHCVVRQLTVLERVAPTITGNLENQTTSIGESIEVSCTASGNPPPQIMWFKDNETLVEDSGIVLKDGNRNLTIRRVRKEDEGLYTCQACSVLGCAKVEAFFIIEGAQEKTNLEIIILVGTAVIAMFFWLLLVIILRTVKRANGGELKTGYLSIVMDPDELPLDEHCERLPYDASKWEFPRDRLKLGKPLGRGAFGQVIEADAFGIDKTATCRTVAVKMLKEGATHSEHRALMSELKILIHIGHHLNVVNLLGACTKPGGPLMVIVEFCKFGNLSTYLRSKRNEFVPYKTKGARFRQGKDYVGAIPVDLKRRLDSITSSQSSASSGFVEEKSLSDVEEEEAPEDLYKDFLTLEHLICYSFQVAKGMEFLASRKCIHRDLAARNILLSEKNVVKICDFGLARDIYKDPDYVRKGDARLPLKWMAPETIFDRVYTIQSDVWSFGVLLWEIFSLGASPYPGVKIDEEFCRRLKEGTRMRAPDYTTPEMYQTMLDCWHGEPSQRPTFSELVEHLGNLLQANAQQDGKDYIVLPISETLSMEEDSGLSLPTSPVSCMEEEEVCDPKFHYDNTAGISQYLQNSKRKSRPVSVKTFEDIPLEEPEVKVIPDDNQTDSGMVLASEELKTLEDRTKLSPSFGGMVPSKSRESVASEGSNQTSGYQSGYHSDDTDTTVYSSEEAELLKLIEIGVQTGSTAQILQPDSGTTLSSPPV

As a reminder, the IC50 is the concentration at which inhibition is half-maximal. Regarding `COc1ccc(-n2nc(C(C)=O)s/c2=N\N=C(/C)c2ccc(NC(C)=O)cc2)cc1` [Compound 14, N-(4-((E)-1-(((Z)-5-acetyl-3-(4-methoxyphenyl)-1,3,4-thiadiazol-2(3H)-ylidene)hydrazineylidene)ethyl)phenyl)acetamide], the “Lowering of Bcl-2 level versus control” value in [1] turned out to be 6.2 fold. Moreover, in experiment [1] (control = 1), the “RT-PCR fold change, Bcl2” value is recorded as 0.159 fold. Also, the “Selectivity index, HepG2” value in experiment [2] was roughly 1.28. In experiment [3], the “Cell cycle distribution (%) G0–G1” value is reported as 68.43%, the “Cell cycle distribution (%) G2/M” value is recorded as 9.3%, the “Cell cycle distribution (%) S” value turned out to be 22.27% and the “Increase of cell population at G0–G1 phase versus control” value was determined as 1.09 fold. For the same compound, the IC50 in [4] came out at 0.14 µM. Besides, in [5] (MCF-7, after 48 h), the “Area difference (%)” value was 361.667% and the “RM (rate of migration)” value is listed as 7.532 μm. Further, in experiment [5] (MCF-7 scratch assay), the “Wound area at 0 h” value is 933.000 μm^2, the “Wound area at 24 h” value came to 836.333 μm^2, the “Wound area at 48 h” value is 571.333 μm^2 and the “Wound width at 0 h” value was found to be 932.006 μm. For the same compound, in [5] (MCF-7 scratch assay), the “Wound width at 24 h” value is 835.443 μm and the “Wound width at 48 h” value is 570.472 μm. In addition, the IC50 in experiment [6] amounted to 0.04 ± 0.009 µM. The compound further showed an IC50 in experiment [7] (VEGFR-2 IC50, as printed in section 3.2.3) of 0.243 µM. In addition, in [7] (VEGFR-2 IC50, as printed in the abstract), the midpoint of inhibition, the IC50, lay at 0.103 µM. Further, in experiment [8], the “Early apoptosis (%)” value is 16.53%, the “Late apoptosis (%)” value came to 29.57%, the “Necrosis (%)” value is 5.95% and the “Necrosis percentage enhancement versus control” value is recorded as “four-fold”. For the same compound, in [8], the “Total apoptosis (%)” value is 52.05% and the “Total apoptosis enhancement versus control” value was 22 fold. The IC50 in experiment [9] is 0.18 ± 0.006 µM.
Consider `COc1ccc(-n2nc(C(C)=O)s/c2=N\N=C(/C)c2ccc(NC(=O)c3ccccc3)cc2)cc1` [Compound 18a, N-(4-((E)-1-(((Z)-5-Acetyl-3-(4-methoxyphenyl)-1,3,4-thiadiazol-2(3H)-ylidene) hydrazono)ethyl)phenyl) benzamide], for which the IC50 in experiment [6] is 0.16 ± 0.017 µM; in experiment [9], 0.8 ± 0.012 µM.
Take `CC(=O)c1nn(-c2ccc(Cl)cc2)/c(=N/N=C(\C)c2ccc(NC(=O)c3ccccc3)cc2)s1` [Compound 18b, N-(4-((E)-1-(((Z)-5-Acetyl-3-(4-chlorophenyl)-1,3,4-thiadiazol-2(3H)-ylidene) hydrazono)ethyl)phenyl) benzamide]: the IC50 is 0.22 ± 0.098 µM in experiment [6] and 0.2 ± 0.011 µM in experiment [9].
With `COc1ccc(-n2nc(C(C)=O)s/c2=N\N=C(/C)c2ccc(NC(=O)c3ccc(Cl)cc3)cc2)cc1` [Compound 18c, N-(4-((E)-1-(((Z)-5-Acetyl-3-(4-methoxyphenyl)-1,3,4-thiadiazol-2(3H)-ylidene) hydrazono)ethyl)phenyl)-4-chlorobenzamide], the IC50 in [6] came out at 0.19 ± 0.014 µM; in [9], 0.16 ± 0.032 µM.
As for `CC(=O)c1nn(-c2ccc(Cl)cc2)/c(=N/N=C(\C)c2ccc(NC(=O)c3ccc(Cl)cc3)cc2)s1` [Compound 18d, N-(4-((E)-1-(((Z)-5-Acetyl-3-(4-chlorophenyl)-1,3,4-thiadiazol-2(3H)-ylidene) hydrazono)ethyl)phenyl)-4-chlorobenzamide], the results for the IC50 in [6] and in experiment [9] were 5 ± 0.192 µM and 6.17 ± 0.019 µM, respectively.
As to `COc1ccc(-n2nc(C(C)=O)s/c2=N\N=C(/C)c2ccc(NC(=O)c3ccc(C)cc3)cc2)cc1` [Compound 18e, N-(4-((E)-1-(((Z)-5-Acetyl-3-(4-methoxyphenyl)-1,3,4-thiadiazol-2(3H)-ylidene) hydrazono)ethyl)phenyl)-4-methylbenzamide], the half-inhibitory concentration (IC50) in experiment [6] is 0.19 ± 0.045 µM; in experiment [9], 0.21 ± 0.045 µM.
Take `CC(=O)c1nn(-c2ccc(Cl)cc2)/c(=N/N=C(\C)c2ccc(NC(=O)c3ccc(C)cc3)cc2)s1` [Compound 18f, N-(4-((E)-1-(((Z)-5-Acetyl-3-(4-chlorophenyl)-1,3,4-thiadiazol-2(3H)-ylidene) hydrazono)ethyl)phenyl)-4-methylbenzamide]: the values for the IC50 in experiment [6] and in experiment [9] were 0.44 ± 0.065 µM and 0.18 ± 0.018 µM, respectively.
The corresponding values for `CNC(=O)c1cc(Oc2ccc(NC(=O)Nc3ccc(Cl)c(C(F)(F)F)c3)cc2)ccn1` [Sorafenib, reference compound] are 0.15 ± 0.013 µM and 0.14 ± 0.052 µM.
